# Test results taken from patent publication US12071488B2, “Method of sensitizing cancer cells to anti-cancer treatment” (TWO TO BIOTECH LTD., priority 2017, dated 2024).
# Columns and labels:
# Type in all cases: cell-based, human
# HER2 = experiment: Immunofluorescence of HER2 in MDA-MB-231 cells
# Experimental: Cells (MDA-MB-231, MDA-MB-468 and BTS-149) were grown until 70-80% density was reached. Then the growth medium was discarded and the cells were treated with trypsin and medium as described above. After the cells were detached from the surface, the 20 ml cell suspension (namely cells in medium and Trypsin) were transferred into 50 ml conical tubes and centrifuged at 300 g for 10 min in 4° C. Next, the supernatant was discarded and 2 ml fresh medium were added to the cell pellet. Then the cells were fluidized and 13 ml medium was added to the tubes, thereby suspending the cells in a total of 15 ml medium. The cells were counted and seeded at 10.000-15,000 cells/well on chamber slide in 1 ml growing medium. The chamber slide seeded with cells was placed in the hood for 1 hour and then transferred to the incubator for an overnight incubation under the above conditions. The following day the medium was aspirated from the cell chamber slides and discarded and 1 ml cell treatment medium supplemented with APC1 (at a final concentration of 100 or 250 μg/ml) or control (medium only). Medium was added to each one of the wells (aliquots of APC1 were used in order to avoid repeated freeze-thaw cycle). The cells were then incubated for 24-144 hours. […]
# estrogen receptor alpha = experiment: Western blot analysis of estrogen receptor alpha expression in MDA-MB-231 cells; settings: APC1 250 μg/ml once a week for one week or twice a week for 3 or 4 weeks
# Text: Abbreviations: M, protein parker; c, control; h, hour; w, week.
# In view of the results shown above, the expression level of estrogen receptor alpha was directly assayed.
# [1] = tested on: ovarian cancer cells OV90 and OV3; experiment: Glutathione level in ovarian cancer cells treated with APC1; settings: ovarian cancer cells (FIG. 18A)
# Experimental: Gluthatione Assay Kit (Sigma CS0260);
# Cell lines (MDA-MB-231, MDA-MB-468) were grown in 75 cm^2 cell culture flask, reached 80-90% confluence. The cells were treated with APC1 (250 μg/ml, 2 times per week for 1 week).
# Cells were washed twice with 10 ml PBS, PBS (5 ml) was added and the cells were collected by scrapping, centrifuged at 300G, 4° C. for 5 minutes, the supernatant was then discarded and the cells were treated with APC1 as indicated above. The values of the Glutathione Standard Solutions were used to determine the standard curve and the delta A412/min equivalent to 1 nmole of reduced glutathione per well was calculated according to manufacturer's instructions.
# As detailed above, the ovarian cancer cells OV90 and OV3, the pancreatic cancer cells BxPC3 and Panel and the TNBC cancer cells MDA-MB-231 and MDA-MB-468 were treated with APC1 and then the relative glutathione levels in these cells was measured as detailed above.
sequence,measurement,setting,value
"EKGAAFSPIYPRRK (C terminal peptide of KTPAF50) [APC1, polypeptide consisting of the 14 C-terminal amino acid residues of the peptide KTPAF50]",HER2 expression by immunofluorescence,"HER2; single dose 250 μg/ml APC1, 48 hours, vs control cells",clear HER2 expression
same,"HER2 expression by immunofluorescence, multiple doses","HER2; three doses of 250 μg/ml APC1, 144, 96 and 72 hours, vs single dose",enhanced
same,expression level of estrogen receptor alpha,estrogen receptor alpha,clear increase
same,level of glutathione,[1],decreased
